Assay results published in ChEMBL document CHEMBL1201862, “PubChem BioAssay data set” (2004).
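Values below derive from 48-hour exposures of cells grown in 96-well plates, with endpoints linearly interpolated between the two concentrations bracketing the appropriate inhibition level. GI50: concentration for 50% inhibition of growth.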 The source made the active and inactive calls. No stated cut-off is given here; in the data, active = GI50 up to about 1.1 µM and inactive = higher.

Assays:
Test in all cases: growth of human tumour cells (NCI), 48 h
U-251 = system: U-251
NCI-H522 = system: NCI-H522
Malme-3M = system: Malme-3M
LOX IMVI = system: LOX IMVI
SW-620 = system: SW-620
SK-MEL-5 = system: SK-MEL-5
UACC-257 = system: UACC-257
786-0 = system: 786-0
SN12C = system: SN12C
RXF 393 = system: RXF 393
UO-31 = system: UO-31
SF-295 = system: SF-295
SK-MEL-28 = system: SK-MEL-28
COLO 205 = system: COLO 205
ACHN = system: ACHN
OVCAR-3 = system: OVCAR-3

Measured: GI50

CC1(C)C(=O)C(C)(C)C1=NN
inactive: U-251 > 100 µM | NCI-H522 > 100 µM | Malme-3M > 100 µM | LOX IMVI > 100 µM | SW-620 > 100 µM | SK-MEL-5 > 100 µM | UACC-257 > 100 µM | 786-0 > 100 µM | SN12C > 100 µM | RXF 393 > 100 µM | UO-31 > 100 µM | SF-295 > 100 µM | SK-MEL-28 > 100 µM | COLO 205 > 100 µM | ACHN > 100 µM | OVCAR-3 > 100 µM

COc1cc2c(cc1O)C=NCC2
inactive: U-251 > 100 µM | NCI-H522 > 100 µM | Malme-3M > 100 µM | SW-620 > 100 µM | SK-MEL-5 63.5 µM | UACC-257 > 100 µM | 786-0 > 100 µM | SN12C > 100 µM | UO-31 > 100 µM | SF-295 > 100 µM | SK-MEL-28 > 100 µM | COLO 205 65.8 µM | ACHN > 100 µM | OVCAR-3 78.5 µM

CCCCCCCCCCCCCCCc1nnc(SCC(=O)O)[nH]1
inactive: U-251 26.4 µM | NCI-H522 41.6 µM | Malme-3M > 100 µM | LOX IMVI 33.4 µM | SW-620 95.5 µM | SK-MEL-5 > 100 µM | UACC-257 > 100 µM | 786-0 18.5 µM | SN12C 71.9 µM | RXF 393 > 100 µM | UO-31 49.9 µM | SF-295 40 µM | SK-MEL-28 80.7 µM | ACHN 47.3 µM | OVCAR-3 > 100 µM

O=[N+]([O-])c1ccc(C[P+]2(c3ccccc3)CCCCC2)cc1.[O-][Cl+3]([O-])([O-])[O-]
inactive: U-251 > 100 µM | NCI-H522 > 100 µM | Malme-3M > 100 µM | LOX IMVI > 100 µM | SW-620 > 100 µM | SK-MEL-5 > 100 µM | UACC-257 > 100 µM | 786-0 > 100 µM | SN12C > 100 µM | RXF 393 > 100 µM | UO-31 > 100 µM | SF-295 > 100 µM | SK-MEL-28 > 100 µM | COLO 205 > 100 µM | ACHN > 100 µM | OVCAR-3 > 100 µM

CCSC(SCC)=C1C(=O)N(c2ccccc2)N=C1C
inactive: NCI-H522 1.95 µM | Malme-3M 10.4 µM | LOX IMVI 12.4 µM | SW-620 7.66 µM | SK-MEL-5 18.3 µM | UACC-257 4.06 µM | 786-0 13.1 µM | SN12C 16.1 µM | RXF 393 1.95 µM | UO-31 15.6 µM | SF-295 23.7 µM | SK-MEL-28 12.9 µM | COLO 205 2.27 µM | ACHN 15.7 µM | OVCAR-3 4.67 µM

N#C/C(=C(/S)Nc1ccccc1)c1nc2ccccc2[nH]1
inactive: U-251 > 10 µM | NCI-H522 > 10 µM | Malme-3M > 10 µM | LOX IMVI > 10 µM | SW-620 > 10 µM | SK-MEL-5 > 10 µM | UACC-257 > 10 µM | 786-0 > 10 µM | SN12C > 10 µM | UO-31 > 10 µM | SK-MEL-28 > 10 µM | COLO 205 > 10 µM | ACHN > 10 µM | OVCAR-3 > 10 µM

CC1(O)CCC2(C)C(=O)C1(C)CCC21OCCO1 (centres undefined)
inactive: U-251 > 100 µM | NCI-H522 > 100 µM | Malme-3M > 100 µM | SW-620 > 100 µM | SK-MEL-5 > 100 µM | UACC-257 > 100 µM | 786-0 > 100 µM | SN12C > 100 µM | RXF 393 > 100 µM | UO-31 > 100 µM | SF-295 > 100 µM | SK-MEL-28 > 100 µM | COLO 205 > 100 µM | ACHN > 100 µM | OVCAR-3 > 100 µM

COC(=O)Cc1c([C@@]2(C)CCCC(C)(C)C2)ccc2c1C(=O)OC2
inactive: U-251 13.3 µM | NCI-H522 5.04 µM | Malme-3M 17.9 µM | LOX IMVI 11.2 µM | SW-620 18.9 µM | SK-MEL-5 7.36 µM | UACC-257 5.66 µM | 786-0 15.7 µM | SN12C 10.1 µM | RXF 393 10.4 µM | UO-31 3.58 µM | SF-295 10.3 µM | SK-MEL-28 13.1 µM | COLO 205 6.7 µM | ACHN 11.7 µM | OVCAR-3 5.25 µM

COc1ccc(C[C@]23CCC(=O)N2CCc2cc(OC)c(O)cc23)cc1O
inactive: Malme-3M > 100 µM | LOX IMVI > 100 µM | SW-620 > 100 µM | SK-MEL-5 > 100 µM | UACC-257 > 100 µM | 786-0 > 100 µM | SN12C > 100 µM | RXF 393 > 100 µM | UO-31 > 100 µM | SF-295 > 100 µM | SK-MEL-28 > 100 µM | COLO 205 > 100 µM | ACHN > 100 µM | OVCAR-3 > 100 µM

CN(C)/C(N)=N\C#N
inactive: U-251 > 100 µM | NCI-H522 > 100 µM | Malme-3M > 100 µM | SW-620 21 µM | SK-MEL-5 > 100 µM | UACC-257 > 100 µM | 786-0 > 100 µM | SN12C > 100 µM | RXF 393 17.5 µM | UO-31 > 100 µM | SF-295 > 100 µM | SK-MEL-28 > 100 µM | COLO 205 59.4 µM | ACHN > 100 µM | OVCAR-3 > 100 µM

COc1ccc(C(CCC(C)=O)C(=O)O)cc1OC (centres undefined)
inactive: U-251 > 100 µM | Malme-3M > 100 µM | LOX IMVI > 100 µM | SW-620 > 100 µM | SK-MEL-5 > 100 µM | UACC-257 > 100 µM | 786-0 > 100 µM | SN12C > 100 µM | RXF 393 > 100 µM | SF-295 > 100 µM | SK-MEL-28 > 100 µM | COLO 205 > 100 µM | ACHN > 100 µM | OVCAR-3 > 100 µM

CC(C)C(=O)/C=C/c1ccc(Cl)cc1
inactive: U-251 12.9 µM | NCI-H522 11 µM | LOX IMVI 8.83 µM | SW-620 3.99 µM | SK-MEL-5 8.57 µM | UACC-257 20.2 µM | 786-0 11.1 µM | SN12C 7.73 µM | RXF 393 17.6 µM | UO-31 12.2 µM | SF-295 13.5 µM | SK-MEL-28 > 10 µM | COLO 205 28.2 µM | ACHN 11.2 µM | OVCAR-3 14.4 µM

CCCCc1c2c(nc3c1CC/C(=C\c1ccccc1)C3=O)CCCC2
inactive: U-251 3.49 µM | NCI-H522 2.15 µM | Malme-3M 7.33 µM | LOX IMVI 1.76 µM | SW-620 1.99 µM | UACC-257 5.78 µM | 786-0 2.33 µM | SN12C 3.18 µM | RXF 393 2.6 µM | UO-31 6.05 µM | SF-295 4.47 µM | SK-MEL-28 3.37 µM | COLO 205 7.48 µM | ACHN 12.1 µM | OVCAR-3 3.25 µM
